Test results as given in paper PMC9963398, “Discovery of New Quinolone-Based Diarylamides as Potent B-RAF^V600E/C-RAF Kinase Inhibitors Endowed with Promising In Vitro Anticancer Activity” (International Journal of Molecular Sciences, 2023).
Like-named read-outs stand apart in the source and are kept apart here.

How the values were obtained:
UACC-62 = tested on: UACC-62; set-up: method as in PMID 32745753; conditions: UACC-62, Melanoma; cited from earlier work
PC-3 = conditions: PC-3, Prostate cancer; cited from earlier work
ACHN = tested on: ACHN; set-up: method as in PMID 32745753; conditions: Renal cancer; cited from earlier work
A498 [1] = tested on: A498; set-up: method as in PMID 32745753; conditions: A498, Renal cancer; cited from earlier work
NCI-H322M [2] = tested on: NCI-H322M; set-up: method as in PMID 32745753; conditions: NSCL cancer; cited from earlier work
CAKI-1 = tested on: CAKI-1; set-up: method as in PMID 32745753; conditions: CAKI-1, Renal cancer; cited from earlier work
MALME-3M = tested on: MALME-3M; set-up: method as in PMID 32745753; conditions: Melanoma; cited from earlier work
U251 = tested on: U251; set-up: method as in PMID 32745753; conditions: U251, CNS cancer; cited from earlier work
HOP-92 = tested on: HOP-92; set-up: method as in PMID 32745753; conditions: HOP-92, NSCL cancer; cited from earlier work
CCRF-CEM [3] = tested on: CCRF-CEM; set-up: method as in PMID 32745753; conditions: Leukemia; cited from earlier work
K-562 [4] = tested on: K-562; set-up: method as in PMID 32745753; conditions: K-562, Leukemia; cited from earlier work
HCT-116 [5] = tested on: HCT-116; set-up: method as in PMID 32745753; conditions: HCT-116, Colon cancer; cited from earlier work
B-RAF^V600E = biological target: T1, B-RAF^V600E (Homo sapiens, UniProt P15056, V600E); assay: HotSpot kinase assay (RBC), B-RAF^V600E; type: biochemical; conditions: 10 µM ATP, 10-dose singlicate IC50 mode
T1 construct: purchased Reaction Biology Corporation (RBC), Kinase HotSpot service
T1 sequence (P15056 whole entry V600E): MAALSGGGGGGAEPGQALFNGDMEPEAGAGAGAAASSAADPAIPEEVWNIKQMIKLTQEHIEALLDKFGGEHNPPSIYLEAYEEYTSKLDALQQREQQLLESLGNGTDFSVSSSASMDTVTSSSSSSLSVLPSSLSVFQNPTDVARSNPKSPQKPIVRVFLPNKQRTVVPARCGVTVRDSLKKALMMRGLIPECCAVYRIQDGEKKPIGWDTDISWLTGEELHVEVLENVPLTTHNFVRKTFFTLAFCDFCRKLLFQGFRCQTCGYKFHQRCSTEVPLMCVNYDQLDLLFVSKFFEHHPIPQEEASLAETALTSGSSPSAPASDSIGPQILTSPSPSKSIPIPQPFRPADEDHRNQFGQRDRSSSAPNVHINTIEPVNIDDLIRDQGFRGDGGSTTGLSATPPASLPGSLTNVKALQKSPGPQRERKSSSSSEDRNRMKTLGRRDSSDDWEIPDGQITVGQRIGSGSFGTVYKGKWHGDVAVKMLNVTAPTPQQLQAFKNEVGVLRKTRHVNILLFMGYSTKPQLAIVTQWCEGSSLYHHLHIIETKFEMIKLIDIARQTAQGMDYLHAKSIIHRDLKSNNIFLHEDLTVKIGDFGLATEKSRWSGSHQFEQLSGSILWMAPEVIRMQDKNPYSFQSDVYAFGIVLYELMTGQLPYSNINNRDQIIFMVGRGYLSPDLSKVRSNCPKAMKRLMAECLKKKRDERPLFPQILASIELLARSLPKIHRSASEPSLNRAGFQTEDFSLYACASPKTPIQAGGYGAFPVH

C-RAF = C-RAF (Homo sapiens, UniProt P04049); assay: HotSpot kinase assay (RBC), C-RAF; conditions: IC50 C-RAF, 10 µM ATP, 10-dose singlicate IC50 mode
C-RAF, sequence (P04049 whole entry): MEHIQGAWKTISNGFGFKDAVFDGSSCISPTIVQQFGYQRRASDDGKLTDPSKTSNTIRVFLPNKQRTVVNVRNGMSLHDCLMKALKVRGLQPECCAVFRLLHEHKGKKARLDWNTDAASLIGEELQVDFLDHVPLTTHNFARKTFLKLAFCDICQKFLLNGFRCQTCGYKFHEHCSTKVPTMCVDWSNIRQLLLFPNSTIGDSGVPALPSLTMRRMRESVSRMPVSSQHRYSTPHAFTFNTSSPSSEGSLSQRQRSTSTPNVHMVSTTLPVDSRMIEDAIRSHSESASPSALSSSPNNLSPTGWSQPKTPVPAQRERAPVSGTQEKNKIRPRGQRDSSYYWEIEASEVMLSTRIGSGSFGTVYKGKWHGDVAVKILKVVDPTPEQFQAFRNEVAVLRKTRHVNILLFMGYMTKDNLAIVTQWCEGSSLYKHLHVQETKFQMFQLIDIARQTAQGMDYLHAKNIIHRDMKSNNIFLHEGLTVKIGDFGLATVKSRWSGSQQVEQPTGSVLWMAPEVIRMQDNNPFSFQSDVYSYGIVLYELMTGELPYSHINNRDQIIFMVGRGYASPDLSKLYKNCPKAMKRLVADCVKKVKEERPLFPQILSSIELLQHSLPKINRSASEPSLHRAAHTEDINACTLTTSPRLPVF
Source text: Reaction Biology Corporation (RBC) Kinase HotSpotSM service was utilized for cell-free biochemical kinase evaluation of the target compounds according to the reported assay protocol [46].

[6] = tested on: NCI-60 human tumor cell lines; assay: NCI-60 five-dose testing, ranges over panel or subpanel; type: cell-based
Method: The anticancer screening of target compounds over a full panel of 60 human cancer cell lines was carried out using Sulforhodamine B (SRB) assay at the National Cancer Institute (NCI), Bethesda, Maryland, USA, employing the standard protocol.

HCT-116 [7] = assay: NCI-60 five-dose SRB assay; type: cell-based; conditions: Homo sapiens; HCT-116, Colon cancer, five-dose test
How it was run: (§1)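 Following the NCI standard screening protocol, the full panel of 60 human cancer cell lines was assessed by sulforhodamine B assay at the Institute.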

K-562 [8] = assay: NCI-60 five-dose SRB assay; type: cell-based; conditions: Homo sapiens, K562; K-562, Leukemia, five-dose test
How it was run: as §1

SF-539 = assay: NCI-60 five-dose SRB assay; type: cell-based; conditions: Homo sapiens; SF-539, CNS cancer, five-dose test
How it was run: as §1

SK-MEL-2 = assay: NCI-60 five-dose SRB assay; type: cell-based; conditions: Homo sapiens; SK-MEL-2, Melanoma, five-dose test
How it was run: as §1

MCF7 = assay: NCI-60 five-dose SRB assay; type: cell-based; conditions: Homo sapiens; MCF7, Breast cancer, five-dose test
How it was run: as §1

NCI-H522 = assay: NCI-60 five-dose SRB assay; type: cell-based; conditions: Homo sapiens; NCI-H522, NSCL cancer, five-dose test
How it was run: as §1

NCI-H322M [9] = assay: NCI-60 five-dose SRB assay; type: cell-based; conditions: Homo sapiens, NSCL cancer, five-dose test
How it was run: as §1

NCI-H460 = assay: NCI-60 five-dose SRB assay; type: cell-based; conditions: Homo sapiens; NCI-H460, NSCL cancer, five-dose test
How it was run: as §1

NCI-H226 = assay: NCI-60 five-dose SRB assay; type: cell-based; conditions: Homo sapiens; NCI-H226, NSCL cancer, five-dose test
How it was run: as §1

A498 [10] = assay: NCI-60 five-dose SRB assay; type: cell-based; conditions: Homo sapiens; A498, Renal cancer, five-dose test
How it was run: as §1

786-0 = assay: NCI-60 five-dose SRB assay; type: cell-based; conditions: Homo sapiens; 786-0, Renal cancer, five-dose test
How it was run: as §1

SK-MEL-28 = assay: NCI-60 five-dose SRB assay; type: cell-based; conditions: Homo sapiens; SK-MEL-28, Melanoma, five-dose test
How it was run: as §1

HCT-15 = assay: NCI-60 five-dose SRB assay; type: cell-based; conditions: Homo sapiens; HCT-15, Colon cancer, five-dose test
How it was run: as §1

CCRF-CEM [11] = assay: NCI-60 five-dose SRB assay; type: cell-based; conditions: Homo sapiens, Leukemia, five-dose test
How it was run: as §1

SK-MEL-5 = assay: NCI-60 five-dose SRB assay; type: cell-based; conditions: Homo sapiens; SK-MEL-5, Melanoma, five-dose test
How it was run: as §1

NCI/ADR-RES = assay: NCI-60 five-dose SRB assay; type: cell-based; conditions: Homo sapiens, Ovarian cancer, five-dose test
How it was run: as §1

[12] = tested on: NCI-60 human cancer cell lines; assay: NCI-60 single dose (10 µM) testing; type: cell-based; conditions: single dose 10 µM
Method: Encouraged by the promising results in the cell-free assay, the antiproliferative activity of all final compounds was evaluated by the National Cancer Institute (NCI) in a single dose of 10 µM over a library of 60 human cancer cell lines representing nine cancer types; leukemia, non-small cell lung (NSCL), colon, central nervous system (CNS), melanoma, ovarian, renal, prostate, and breast cancer.

B-RAF^V600K = biological target: T2, B-RAF^V600K (Homo sapiens, UniProt P15056, V600K); assay: HotSpot kinase assay (RBC), B-RAF^V600K; type: biochemical; conditions: 10 µM ATP
T2 construct: purchased Reaction Biology Corporation (RBC), Kinase HotSpot service
T2 sequence (P15056 whole entry V600K): as the sequence (P15056 whole entry V600E) above, with E600K counted along it
Method: To gain insight into the inhibitory mode of this new array of quinolines, 18a was tested at 1 µM concentration of ATP to compare it with its IC50 at 10 µM (Table 2).

**Q.** Which results are given for `CNC(=O)c1cc(Oc2ccc(NC(=O)Nc3ccc(Cl)c(C(F)(F)F)c3)cc2)ccn1` [Sorafenib]?
**A.** GI50 (UACC-62): 1700 nM; GI50 (PC-3): 2000 nM; GI50 (ACHN): 2800 nM; GI50 (A498 [1]): 2300 nM; GI50 (NCI-H322M [2]): 2800 nM; GI50 (CAKI-1): 2900 nM; GI50 (MALME-3M): 2200 nM; GI50 (U251): 2100 nM; GI50 (HOP-92): 1600 nM; GI50 (CCRF-CEM [3]): 2200 nM; GI50 (K-562 [4]): 2800 nM; GI50 (HCT-116 [5]): 1700 nM

**Q.** For `CN1CCCN(Cc2ccc(C(=O)Nc3cccc(Nc4ccc5c(O)cccc5n4)c3)cc2C(F)(F)F)CC1` [Compound 17b, N-(3-((5-hydroxyquinolin-2-yl)amino)phenyl)-4-((4-methyl-1,4-diazepan-1-yl)methyl)-3-(trifluoromethyl)benzamide], which IC50 (B-RAF^V600E) is on record?
**A.** 128 ± 0.05 nM

**Q.** What about the IC50 (C-RAF) of the same compound?
**A.** 65.3 ± 0.6 nM

**Q.** And the GI50 ([6]; Homo sapiens, MOLT-4, all leukemia cell lines, except MOLT-4)?
**A.** > 2000 nM

**Q.** And the GI50 ([6]; Homo sapiens, colon cancer cell lines, range over lines)?
**A.** < 2000 nM

**Q.** And the GI50 ([6]; Homo sapiens, melanoma cell lines, range over lines)?
**A.** 1600 to 1890 nM

**Q.** And the GI50 ([6]; melanoma cell lines, range over lines)?
**A.** < 2000 nM

**Q.** And the GI50 (HCT-116 [7])?
**A.** 1620 nM

**Q.** And the GI50 (K-562 [8])?
**A.** 2180 nM

**Q.** What about the GI50 (SF-539) of the same compound?
**A.** 1700 nM

**Q.** What about the GI50 (SK-MEL-2) of the same compound?
**A.** 1810 nM

**Q.** What about the GI50 (MCF7) of the same compound?
**A.** 1680 nM

**Q.** And the GI50 (NCI-H522)?
**A.** 1840 nM

**Q.** And the GI50 (NCI-H322M [9])?
**A.** 3270 nM

**Q.** And the GI50 (NCI-H460)?
**A.** 1810 nM

**Q.** What about the GI50 (NCI-H226) of the same compound?
**A.** 16700 nM

**Q.** And the GI50 (A498 [10])?
**A.** 15300 nM

**Q.** What about the GI50 (786-0) of the same compound?
**A.** 2060 nM

**Q.** And the GI50 (SK-MEL-28)?
**A.** 1820 nM

**Q.** And the GI50 (HCT-15)?
**A.** 1930 nM

**Q.** What about the GI50 (CCRF-CEM [11]) of the same compound?
**A.** 2070 nM

**Q.** What about the GI50 (SK-MEL-5) of the same compound?
**A.** 1720 nM

**Q.** What about the GI50 (NCI/ADR-RES) of the same compound?
**A.** 6430 nM

**Q.** What about the growth percent ([12]; MALME-3M, MDA-MB-435, SK-MEL-2, and UACC-62) of the same compound?
**A.** less than -90

**Q.** And the growth percent ([12]; melanoma LOX IMVI, SK-MEL-28, and SK-MEL-5)?
**A.** −100

**Q.** And the growth percent ([12]; melanoma SK-MEL-29, SK-MEL-5, and UACC-62)?
**A.** under −90%

**Q.** And the IC50 (B-RAF^V600K)?
**A.** 61.6 ± 1 nM
